What was measured:
Format in all cases: functional
Conditions in all cases: route intraperitoneal
Mus musculus [1] = experiment: Hypoglycemic activity in normal ddY mouse at 1 mg/kg, ip assessed as blood glucose level per 100 mL blood after 4 hrs
Mus musculus [2] = experiment: Hypoglycemic activity in normal ddY mouse at 1 mg/kg, ip assessed as blood glucose level per 100 mL blood after 7 hrs
Mus musculus [3] = experiment: Hypoglycemic activity in normal ddY mouse at 5 mg/kg, ip assessed as blood glucose level per 100 mL blood after 4 hrs
Mus musculus [4] = experiment: Hypoglycemic activity in normal ddY mouse at 5 mg/kg, ip assessed as blood glucose level per 100 mL blood after 7 hrs
Mus musculus [5] = experiment: Hypoglycemic activity in diabetic KK-Ay mouse at 1 mg/kg, ip assessed as blood glucose level per 100 mL blood after 4 hrs
Mus musculus [6] = experiment: Hypoglycemic activity in diabetic KK-Ay mouse at 1 mg/kg, ip assessed as blood glucose level per 100 mL blood after 7 hrs
Mus musculus [7] = experiment: Hypoglycemic activity in diabetic KK-Ay mouse at 5 mg/kg, ip assessed as blood glucose level per 100 mL blood after 4 hrs
Mus musculus [8] = experiment: Hypoglycemic activity in diabetic KK-Ay mouse at 5 mg/kg, ip assessed as blood glucose level per 100 mL blood after 7 hrs
Mus musculus [9] = experiment: Hypoglycemic activity in normal ddY mouse at 50 mg/kg, ip assessed as blood glucose level per 100 mL blood after 4 hrs
Mus musculus [10] = experiment: Hypoglycemic activity in normal ddY mouse at 50 mg/kg, ip assessed as blood glucose level per 100 mL blood after 7 hrs
Mus musculus [11] = experiment: Hypoglycemic activity in diabetic KK-Ay mouse at 50 mg/kg, ip assessed as blood glucose level per 100 mL blood after 4 hrs
Mus musculus [12] = experiment: Hypoglycemic activity in diabetic KK-Ay mouse at 50 mg/kg, ip assessed as blood glucose level per 100 mL blood after 7 hrs

| Compound | Activity (Mus musculus [1]) | Activity (Mus musculus [2]) | Activity (Mus musculus [3]) | Activity (Mus musculus [4]) | Activity (Mus musculus [5]) | Activity (Mus musculus [6]) | Activity (Mus musculus [7]) | Activity (Mus musculus [8]) | Activity (Mus musculus [9]) | Activity (Mus musculus [10]) | Activity (Mus musculus [11]) | Activity (Mus musculus [12]) |
| --- | --- | --- | --- | --- | --- | --- | --- | --- | --- | --- | --- | --- |
| COc1ccc(/C=C/C(=O)O[C@@H]2[C@H](O[C@@H]3O[C@@H](C)[C@H](O)[C@@H](O)[C@H]3O)[C@@H](O[C@@H]3O[C@@H](C)[C@H](O[C@@H]4OC[C@@H](O[C@@H]5O[C@H](CO)[C@H](O)[C@H](O)[C@H]5O)[C@H](O)[C@H]4O)[C@@H](O)[C@H]3O)[C@H](OC(=O)[C@]34CCC(C)(C)C[C@@H]3C3=CC[C@@H]5[C@@]6(C)C[C@H](O[C@@H]7O[C@H](CO)[C@@H](O)[C@H](O)[C@H]7O)[C@H](O)[C@@](C)(C(=O)O)[C@@H]6CC[C@@]5(C)[C@]3(CO)CC4)O[C@@H]2C)cc1 [SENEGIN III] | 167 mg | 172 mg | 151 mg/dL | 160 mg/dL | 195 mg | 210 mg | 204 mg/dL | 146 mg/dL |  |  |  |  |
| COc1ccc(/C=C/C(=O)O[C@@H]2[C@H](O)[C@@H](O[C@@H]3O[C@@H](C)[C@H](O[C@@H]4OC[C@@H](O[C@@H]5O[C@H](CO)[C@H](O)[C@H](O)[C@H]5O)[C@H](O)[C@H]4O)[C@@H](O)[C@H]3O)[C@H](OC(=O)[C@]34CCC(C)(C)C[C@@H]3C3=CC[C@@H]5[C@@]6(C)C[C@H](O[C@@H]7O[C@H](CO)[C@@H](O)[C@H](O)[C@H]7O)[C@H](O)[C@@](C)(C(=O)O)[C@@H]6CC[C@@]5(C)[C@]3(CO)CC4)O[C@@H]2C)cc1 [DESMETHOXYSENEGIN II] |  |  | 199 mg/dL | 195 mg/dL |  |  | 306 mg/dL | 325 mg/dL |  |  |  |  |
| CCCCNC(=O)NS(=O)(=O)c1ccc(C)cc1 [TOLBUTAMIDE] |  |  |  |  |  |  |  |  | 160 mg | 170 mg | 495 mg | 370 mg |
| COc1ccc(/C=C/C(=O)O[C@@H]2[C@H](O[C@@H]3O[C@@H](C)[C@H](O)[C@@H](O)[C@H]3O)[C@@H](O[C@@H]3O[C@@H](C)[C@H](O[C@@H]4OC[C@@H](O[C@@H]5O[C@H](CO)[C@H](O)[C@H](O)[C@H]5O)[C@H](O)[C@H]4O)[C@@H](O[C@H]4OC[C@](O)(CO)[C@H]4O)[C@H]3O)[C@H](OC(=O)[C@]34CCC(C)(C)C[C@@H]3C3=CC[C@@H]5[C@@]6(C)C[C@H](O[C@@H]7O[C@H](CO)[C@@H](O)[C@H](O)[C@H]7O)[C@H](O)[C@@](C)(C(=O)O)[C@@H]6CC[C@@]5(C)[C@]3(CO)CC4)O[C@@H]2C)cc1 [SENEGIN IV] | 177 mg | 171 mg | 187 mg/dL | 169 mg/dL | 207 mg | 276 mg | 276 mg/dL | 388 mg/dL |  |  |  |  |
| COc1cc(/C=C/C(=O)OC[C@@]2(O[C@H]3O[C@H](COC(C)=O)[C@@H](OC(=O)/C=C/c4ccc(O)c(OC)c4)[C@H](O[C@@H]4O[C@H](COC(C)=O)[C@@H](O[C@@H]5O[C@H](CO)[C@@H](O)[C@H](O)[C@H]5O)[C@H](O)[C@H]4O)[C@H]3O[C@@H]3O[C@H](CO)[C@@H](O)[C@H](O)[C@H]3O)O[C@H](CO)[C@@H](O)[C@@H]2OC(=O)c2ccccc2)ccc1O [SENEGOSE A] |  |  | 197 mg/dL | 199 mg/dL |  |  | 401 mg/dL | 368 mg/dL |  |  |  |  |
| COc1ccc(/C=C/C(=O)O[C@@H]2[C@H](O)[C@@H](O[C@@H]3O[C@@H](C)[C@H](O[C@@H]4OC[C@@H](O[C@@H]5O[C@H](CO)[C@H](O)[C@H](O)[C@H]5O)[C@H](O)[C@H]4O)[C@@H](O)[C@H]3O)[C@H](OC(=O)[C@]34CCC(C)(C)C[C@@H]3C3=CCC5[C@@]6(C)C[C@H](O[C@@H]7O[C@H](CO)[C@@H](O)[C@H](O)[C@H]7O)[C@H](O)[C@@](C)(C(=O)O)[C@@H]6CC[C@@]5(C)[C@]3(CO)CC4)O[C@@H]2C)cc1OC (stereo partly specified) [SENEGIN II] | 139 mg | 149 mg | 137 mg/dL | 140 mg/dL | 226 mg | 305 mg | 217 mg/dL | 182 mg/dL |  |  |  |  |
